From patent EP0754193B1, “HEPATITIS C VIRUS CORE PEPTIDE FOR STIMULATION OF CYTOTOXIC T LYMPHOCYTES AND DIAGNOSIS OF HCV EXPOSURE” (priority 1994, dated 1995)
Where no end group is shown, it is not given here.

Tested on: 18Neo (H-2^d; class I MHC^+, class II MHC^- neomycin-resistance gene-transfected 3T3 fibroblast)
Details: in the absence of CTL

## GFADLMGYIPLVGAPL [Peptide C7]
  direct toxicity to the cells: not directly toxic
